In US12312625B2, “Engineering strain producing cordycepin and its derivative 3′-deoxyinosine, its preparation method and application” (DALIAN UNIVERSITY, priority 2022, dated 2025):

Tested on: Pichia pastoris GS115 strain
Assay: Cordycepin tolerance test (growth curves of yeast in YPD medium with cordycepin)
Assay type: cell-based
Conditions: 30° C., biomass measured every 2h, FIG. 5
From the text: In order to detect the tolerance of yeast strains to cordycepin, the inventor thus provides a method of detecting the tolerance of yeast strains to cordycepin. The Pichia pastoris GS115 strain is activated and inoculated into a 96-deep porous plate containing YPD medium, with the inoculation concentration at about OD600=0.4, supplemented with the cordycepin solutions under different concentrations (0.1, 1.0, 2.0, 5.0 g·L^−1). The broth without cordycepin is used as the control, and the porous plate is placed into BioScreene, cultured by shaking at constant temperature of 30° C., and the biomass of the strain is measured every 2h. Triplicates are set in each group, and an average value of the triplicate is calculated to draw a growth curve of yeast strains under the effect of different concentrations of cordycepin. […] As mentioned above, the cordycepin yield has exceeded 2.0 g/L, so the stress tolerance of the strain needs to be considered.

Question: For `Nc1ncnc2c1ncn2[C@@H]1O[C@H](CO)C[C@H]1O` [cordycepin], which “growth of yeast strains” value (YPD medium containing 2-5 g/L cordycepin) is on record?
Answer: The value was “severely inhibited”.

Question: And the “growth of yeast strains” value (YPD medium, 1 g/L cordycepin)?
Answer: The value was “slight impact”.

Question: What about the “growth of yeast strains” value (YPD medium, cordycepin below 0.1 g/L) of the same compound?
Answer: The value was “almost has no effect”.
